Test system: IDDM associated autoantibodies in sera
Experiment: ELISA of sera on plate-bound human GAD65 peptides
Type: binding
Conditions: for number of IDDM (at risk, pre-IDDM, at onset) patients positive (X) for the peptide (unlabelled sum line): IDDM sera of Table 11
Experimental: Patient sera and most control sera were those used in a previous study (Kaufman, et al., J. Clin. Investigation, supra) All samples were coded and tested in a blind manner. Peptides were synthesized using an automatic instrument (Applied Biosystems, Foster City, Calif.) and standard conditions. Peptides were dissolved in 60 mM sodium bicarbonate buffer (pH 9.6) at 20 ug/ml and 100 ul of each was added to duplicated wells of a 96 well Nunc-Immuno Plate. Peptides were allowed to bind at 4° C. overnight. The plates were then washed three times with PBS+0.1% Tween 20 (wash buffer), after which the plates were pre-absorbed with 3% BSA in sodium bicarbonate buffer for 0.5 hours at 37° C., or at room temperature overnight. The plates were then washed 5 times with the above wash buffer. 100 ul of serum at a 1/300 dilution in PBS+0.1% Tween 20 and 1% BSA was added to each well and antibodies were allowed to bind for 1 hour at 37° C. The plates were washed 5 times with wash buffer. 100 ul of a 1/600 dilution of HRP-goat anti-human IgG (BRL, Gaithersberg, Md.) was added to each well and allowed to bind for 1 hour at 37° C. The plates were then washed 7 times and 100 ul of substrate buffer was added to each well for 30 minutes at room temperature. The color development was measured at 410 nm using an ELISA plate reader (ICN, Biomedicals, Costa Mesa, Calif.). Positive sera were defined as: OD410 of the sample/negative control ≧3.0.

[1] = IDDM At Onset serum 048, 1/300 dilution
[2] = IDDM At Onset serum 291, 1/300 dilution
[3] = IDDM At Risk serum L.I., 1/300 dilution
[4] = Pre-IDDM serum P.T. (2), 1/300 dilution
[5] = IDDM At Risk serum 052, 1/300 dilution
[6] = IDDM At Onset serum 705, 1/300 dilution
[7] = IDDM At Onset serum S.H., 1/300 dilution
[8] = Pre-IDDM serum 723, 1/300 dilution
[9] = Pre-IDDM serum J.B. (2), 1/300 dilution
[10] = Pre-IDDM serum P.T. (1), 1/300 dilution
[11] = Pre-IDDM serum R.S. (2), 1/300 dilution

Sequence	immunoreactivity of serum with GAD65 peptide [1]	immunoreactivity of serum with GAD65 peptide [2]	number of IDDM (at risk, pre-IDDM, at onset) patients positive (X) for the peptide (unlabelled sum line)	immunoreactivity of serum with GAD65 peptide [4]	immunoreactivity of serum with GAD65 peptide [5]	immunoreactivity of serum with GAD65 peptide [6]	immunoreactivity of serum with GAD65 peptide [9]	further results
EYLYNIIKNREGYEMVFDGK [Peptide 32]	X (X = positive for immunoreactivity as defined by 00/background^3.0)	b (b = borderline response (00/background ?2.5-2.9).)	1	b (b = borderline response (00/background ?2.5-2.9).)				immunoreactivity of serum with GAD65 peptide [3]: b (b = borderline response (00/background ?2.5-2.9).); immunoreactivity of serum with GAD65 peptide (control serum 4380, 1/300 dilution): b (b = borderline response (00/background ?2.5-2.9).)
EYVTLKKMREIIGWPGGSGD [Peptide 15]					b (b = borderline response (00/background ?2.5-2.9).)			
GLLMSRKHKLSGVERANS [Peptide 25]	X (X = positive for immunoreactivity as defined by 00/background^3.0)	X (X = positive for immunoreactivity as defined by 00/background^3.0)	8	X (X = positive for immunoreactivity as defined by 00/background^3.0)		X (X = positive for immunoreactivity as defined by 00/background^3.0)	b (b = borderline response (00/background ?2.5-2.9).)	controls whose sera recognized the peptide (13 control sera): 1 out of 13; number of control sera positive (X) for the peptide (unlabelled sum line) (13 control sera): 1; immunoreactivity of serum with GAD65 peptide [7]: X (X = positive for immunoreactivity as defined by 00/background^3.0); immunoreactivity of serum with GAD65 peptide (IDDM At Risk serum 356, 1/300 dilution): X (X = positive for immunoreactivity as defined by 00/background^3.0); immunoreactivity of serum with GAD65 peptide (IDDM At Risk serum 825, 1/300 dilution): b (b = borderline response (00/background ?2.5-2.9).); immunoreactivity of serum with GAD65 peptide [8]: X (X = positive for immunoreactivity as defined by 00/background^3.0); immunoreactivity of serum with GAD65 peptide [10]: b (b = borderline response (00/background ?2.5-2.9).); immunoreactivity of serum with GAD65 peptide (Pre-IDDM serum R.S. (1), 1/300 dilution): X (X = positive for immunoreactivity as defined by 00/background^3.0); immunoreactivity of serum with GAD65 peptide [11]: X (X = positive for immunoreactivity as defined by 00/background^3.0); immunoreactivity of serum with GAD65 peptide (control serum FA12, 1/300 dilution): b (b = borderline response (00/background ?2.5-2.9).); immunoreactivity of serum with GAD65 peptide (control serum S.M., 1/300 dilution): X (X = positive for immunoreactivity as defined by 00/background^3.0); patients whose sera recognized the peptide (patients previously shown to be 64K positive): 6/8
GSGDSENPGTARAWCQVAQKFTG [Peptide 2]					b (b = borderline response (00/background ?2.5-2.9).)			immunoreactivity of serum with GAD65 peptide [7]: b (b = borderline response (00/background ?2.5-2.9).)
HATDLLPACDGERPTLAFLQ [Peptide 7]		b (b = borderline response (00/background ?2.5-2.9).)		b (b = borderline response (00/background ?2.5-2.9).)			b (b = borderline response (00/background ?2.5-2.9).)	immunoreactivity of serum with GAD65 peptide (Pre-IDDM serum J.B. (1), 1/300 dilution): b (b = borderline response (00/background ?2.5-2.9).)
KGTTGFEAHVDKCLELAEYLYN [Peptide 31]				b (b = borderline response (00/background ?2.5-2.9).)	b (b = borderline response (00/background ?2.5-2.9).)			immunoreactivity of serum with GAD65 peptide [10]: b (b = borderline response (00/background ?2.5-2.9).)
KHYDLSYDTGDKALQCGRHV [Peptide 29]	X (X = positive for immunoreactivity as defined by 00/background^3.0)		4	X (X = positive for immunoreactivity as defined by 00/background^3.0)	X (X = positive for immunoreactivity as defined by 00/background^3.0)	X (X = positive for immunoreactivity as defined by 00/background^3.0)	b (b = borderline response (00/background ?2.5-2.9).)	immunoreactivity of serum with GAD65 peptide [10]: X (X = positive for immunoreactivity as defined by 00/background^3.0)
KPCSCSKVDVNYAFLHATDL [Peptide 6]	X (X = positive for immunoreactivity as defined by 00/background^3.0)		2		X (X = positive for immunoreactivity as defined by 00/background^3.0)			immunoreactivity of serum with GAD65 peptide [11]: b (b = borderline response (00/background ?2.5-2.9).)
LAFLQDVMNILLQYVVKSFDRS [Peptide 8]			2	b (b = borderline response (00/background ?2.5-2.9).)		X (X = positive for immunoreactivity as defined by 00/background^3.0)	b (b = borderline response (00/background ?2.5-2.9).)	immunoreactivity of serum with GAD65 peptide [3]: X (X = positive for immunoreactivity as defined by 00/background^3.0); immunoreactivity of serum with GAD65 peptide [11]: b (b = borderline response (00/background ?2.5-2.9).)
LEAKQKGFVPFLVSATAGTT [Peptide 22]		X (X = positive for immunoreactivity as defined by 00/background^3.0)	2	b (b = borderline response (00/background ?2.5-2.9).)		X (X = positive for immunoreactivity as defined by 00/background^3.0)	b (b = borderline response (00/background ?2.5-2.9).)	
LLYGDAEKPAESGGSQPPRA [Peptide 4]		X (X = positive for immunoreactivity as defined by 00/background^3.0)		b (b = borderline response (00/background ?2.5-2.9).)			b (b = borderline response (00/background ?2.5-2.9).)	
QKFTGGIGIGNKLCALLYGD [Peptide 3]	X (X = positive for immunoreactivity as defined by 00/background^3.0)	b (b = borderline response (00/background ?2.5-2.9).)						immunoreactivity of serum with GAD65 peptide [7]: X (X = positive for immunoreactivity as defined by 00/background^3.0); immunoreactivity of serum with GAD65 peptide [3]: b (b = borderline response (00/background ?2.5-2.9).); immunoreactivity of serum with GAD65 peptide [8]: X (X = positive for immunoreactivity as defined by 00/background^3.0)
QNCNQMHASYLFQQDKHYDL [Peptide 28]					b (b = borderline response (00/background ?2.5-2.9).)			

Source: patent publication US8926966B1 (Regents of the University of California, priority 1990, dated 2015)
